Test results: PubChem BioAssay AID330 (DTP/NCI, 2004)
Values joined by “and” are separate entries in the source; they are usually repeats but may differ in a detail not shown here. Identical values can stand only once. Inconclusive results and toxic doses are left out.

Test system: P388 leukemia ip, CD2F1 mice, survival T/C
Experiment: NCI In Vivo Anticancer Drug Screen. Data for tumor model P388 Leukemia (intraperitoneal) in CD2F1 (CDF1) mice
Details: endpoint: median survival time, higher = longer survival
Outline: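 Mice carrying the transplanted tumor received test compound or vehicle. Survival was recorded in each group, and the value is the treated-group measurement divided by that of the vehicle-treated control group.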

[1] = dose: 60.0 mg/kg/injection, schedule: Q01DX005 (ip), vehicle: saline with Tween-80

COCCOC(=O)CCn1cc(F)c(=O)[nH]c1=O
T/C (dose: 30.0 mg/kg/injection, schedule: Q04DX002 (ip), vehicle: saline): 92 % of control | T/C (dose: 60.0 mg/kg/injection, schedule: Q04DX002 (ip), vehicle: saline): 108 % of control | T/C (dose: 120.0 mg/kg/injection, schedule: Q04DX002 (ip), vehicle: saline): 96 % of control | T/C (dose: 200.0 mg/kg/injection, schedule: Q04DX002 (ip), vehicle: saline): 91 % of control and 123 % of control | T/C (dose: 240.0 mg/kg/injection, schedule: Q04DX002 (ip), vehicle: saline): 96 % of control | T/C (dose: 400.0 mg/kg/injection, schedule: Q04DX002 (ip), vehicle: saline): 93 % of control | T/C (dose: 600.0 mg/kg/injection, schedule: Q04DX002 (ip), vehicle: saline): 91 % of control | T/C (dose: 800.0 mg/kg/injection, schedule: Q04DX002 (ip), vehicle: saline): 118 % of control | T/C (dose: 1600.0 mg/kg/injection, schedule: Q04DX002 (ip), vehicle: saline): 155 % of control

O=C1C=C(O)C(=O)C(CC2=C(O)C(=O)C=C(O)C2=O)=C1O
T/C (dose: 12.5 mg/kg/injection, schedule: Q01DX005 (ip), vehicle: Klucel (hydroxypropylcellulose) (HPC)): 101 % of control and 90 % of control | T/C (dose: 25.0 mg/kg/injection, schedule: Q01DX005 (ip), vehicle: Klucel (hydroxypropylcellulose) (HPC)): 86 % of control and 90 % of control and 95 % of control

CC1(C)CC(=O)C2=C(C1)CC1(C)CC(C)(C)CC2(OC(=O)Cc2ccccc2)C1 (stereo unspecified)
T/C (dose: 50.0 mg/kg/injection, schedule: Q01DX005 (ip), vehicle: Klucel (hydroxypropylcellulose) (HPC)): 98 % of control | T/C (dose: 100.0 mg/kg/injection, schedule: Q01DX005 (ip), vehicle: Klucel (hydroxypropylcellulose) (HPC)): 95 % of control | T/C (dose: 200.0 mg/kg/injection, schedule: Q01DX005 (ip), vehicle: Klucel (hydroxypropylcellulose) (HPC)): 92 % of control

CC1CC(c2ccccc2)C(c2ccc(Cl)cc2)C(=O)O1 (stereo unspecified)
T/C (dose: 50.0 mg/kg/injection, schedule: Q01DX009 (ip), vehicle: Klucel (hydroxypropylcellulose) (HPC)): 96 % of control | T/C (dose: 100.0 mg/kg/injection, schedule: Q01DX009 (ip), vehicle: Klucel (hydroxypropylcellulose) (HPC)): 100 % of control | T/C (dose: 200.0 mg/kg/injection, schedule: Q01DX009 (ip), vehicle: Klucel (hydroxypropylcellulose) (HPC)): 100 % of control

[CH3][Sn]([c]1ccccc1)[c]1ccccc1
T/C (dose: 50.0 mg/kg/injection, schedule: Q01DX009 (ip), vehicle: saline): 105 % of control | T/C (dose: 100.0 mg/kg/injection, schedule: Q01DX009 (ip), vehicle: saline): 98 % of control | T/C (dose: 200.0 mg/kg/injection, schedule: Q01DX009 (ip), vehicle: saline): 113 % of control

C=CCNc1nc(-c2ccc(OC)c(OC)c2)cs1
T/C (dose: 100.0 mg/kg/injection, schedule: Q04DX003 (ip), vehicle: Klucel (hydroxypropylcellulose) (HPC)): 100 % of control | T/C (dose: 200.0 mg/kg/injection, schedule: Q04DX003 (ip), vehicle: Klucel (hydroxypropylcellulose) (HPC)): 103 % of control | T/C (dose: 400.0 mg/kg/injection, schedule: Q04DX003 (ip), vehicle: Klucel (hydroxypropylcellulose) (HPC)): 100 % of control

CC(C)CC(=O)OCC1=CCN2CC[C@@H](O)[C@@H]12
T/C (dose: 15.0 mg/kg/injection, schedule: Q01DX009 (ip), vehicle: saline + alcohol): 105 % of control | T/C (dose: 30.0 mg/kg/injection, schedule: Q01DX009 (ip), vehicle: saline + alcohol): 109 % of control | T/C (dose: 60.0 mg/kg/injection, schedule: Q01DX009 (ip), vehicle: saline + alcohol): 105 % of control | T/C (dose: 120.0 mg/kg/injection, schedule: Q01DX009 (ip), vehicle: saline + alcohol): 108 % of control | T/C (dose: 240.0 mg/kg/injection, schedule: Q01DX009 (ip), vehicle: saline + alcohol): 108 % of control | T/C (dose: 480.0 mg/kg/injection, schedule: Q01DX009 (ip), vehicle: saline + alcohol): 114 % of control

C[N+]1(Cc2ccccc2)CCC(O)(C(=O)c2ccccc2)CC1 (stereo unspecified)
T/C (dose: 15.0 mg/kg/injection, schedule: Q01DX005 (ip), vehicle: saline with Tween-80): 98 % of control | T/C (dose: 30.0 mg/kg/injection, schedule: Q01DX005 (ip), vehicle: saline with Tween-80): 100 % of control | T/C [1]: 104 % of control and 86 % of control

O=Cc1ccc2c(c1)C(O)NC(=O)O2 (stereo unspecified)
T/C (dose: 50.0 mg/kg/injection, schedule: Q01DX005 (ip), vehicle: saline with Tween-80): 100 % of control | T/C (dose: 100.0 mg/kg/injection, schedule: Q01DX005 (ip), vehicle: saline with Tween-80): 101 % of control

O=C(Cc1ccc([N+](=O)[O-])cc1)ON1C(=O)CCC1=O
T/C [1]: 117 % of control | T/C (dose: 120.0 mg/kg/injection, schedule: Q01DX005 (ip), vehicle: saline with Tween-80): 114 % of control
